This is an account of results in patent US10092620B2, “Uses of cyclic peptides for treating and preventing atherosclerosis” (THE SCRIPPS RESEARCH INSTITUTE, priority 2013, dated 2018).

Non-standard residues stand in square brackets, D forms with d. 4Pal = N[C@@H](Cc1ccncc1)C(=O)O; Aoc(2) = CCCCCC[C@H](N)C(=O)O; dOrn = NCCC[C@@H](N)C(=O)O; Orn = NCCC[C@H](N)C(=O)O

For the first assay, the system named is HDL in human plasma. The assay can be described thus: pre-beta HDL ELISA assay: remodeling HDL in human plasma in vitro.
Conditions: not given
Type of assay: biochemical. As for the experimental part: First, various cyclic peptides, including the majority of compounds shown in FIG. 2, were assessed for activities for remodeling HDL in human plasma in vitro. Unlike western blot which was used to generate data shown in FIG. 2, here a pre-beta HDL ELISA assay was used to measure pre-beta HDL levels. Results from the assay are shown in Table 1, which lists the peptides in the order of their activities in remodeling HDL.
Background: ELISA stands for enzyme-linked immunosorbent assay.
On to “c[fWwYqHhQ] (cyclo([dF]W[dW]Y[dQ]H[dH]Q); SMILES NC(=O)CC[C@@H]1NC(=O)[C@@H](Cc2c[nH]cn2)NC(=O)[C@H](Cc2c[nH]cn2)NC(=O)[C@@H](CCC(N)=O)NC(=O)[C@H](Cc2ccc(O)cc2)NC(=O)[C@@H](Cc2c[nH]c3ccccc23)NC(=O)[C@H](Cc2c[nH]c3ccccc23)NC(=O)[C@@H](Cc2ccccc2)NC1=O) [SEQ ID NO:5]”, for which the “activity in generating pre-beta HDL (in words)” value (from here on “activity”) is listed as “excellent activities in promoting generation of pre-beta HDL”.

As to “c[WlWwkhkh] (cyclo(WIW[dW][dK][dH][dK][dH])) [SEQ ID NO:47]”, the “activity” value is given as “excellent activities in generating plasma pre-beta HDL”.

“c[WIWrEqEr] (cyclo(WIW[dR]E[dQ]E[dR]); SMILES CC[C@H](C)[C@@H]1NC(=O)[C@H](Cc2c[nH]c3ccccc23)NC(=O)[C@@H](CCCNC(=N)N)NC(=O)[C@H](CCC(=O)O)NC(=O)[C@@H](CCC(N)=O)NC(=O)[C@H](CCC(=O)O)NC(=O)[C@@H](CCCNC(=N)N)NC(=O)[C@H](Cc2c[nH]c3ccccc23)NC1=O) [SEQ ID NO:50]”: the “activity” value is given as “excellent activities in generating plasma pre-beta HDL”.

The same assay, now with this note: pre-beta HDL ELISA.
In the case of “48 (cyclo([dW]F[dY]Y[dH][Orn][dR]S); SMILES N=C(N)NCCC[C@H]1NC(=O)[C@H](CCCN)NC(=O)[C@@H](Cc2c[nH]cn2)NC(=O)[C@H](Cc2ccc(O)cc2)NC(=O)[C@@H](Cc2ccc(O)cc2)NC(=O)[C@H](Cc2ccccc2)NC(=O)[C@@H](Cc2c[nH]c3ccccc23)NC(=O)[C@H](CO)NC1=O) [compound 48]”, the “Pre-beta HDL generated (normalized level)” value was found to be 0.70.

Turning to “77 (cyclo(W[dF]E[dL]Y[dS]H[dOrn]); ring closure inferred) [compound 77]”, the “Pre-beta HDL generated (normalized level)” value came out at 0.02.

On to “74 (cyclo([dF]F[dY]F[dK]K); SMILES NCCCC[C@@H]1NC(=O)[C@@H](CCCCN)NC(=O)[C@H](Cc2ccccc2)NC(=O)[C@@H](Cc2ccc(O)cc2)NC(=O)[C@H](Cc2ccccc2)NC(=O)[C@@H](Cc2ccccc2)NC1=O) [compound 74]”, for which the “Pre-beta HDL generated (normalized level)” value is given as 0.04.

For “5 (cyclo([dF]W[dW]Y[dQ]H[dH]Q); SMILES NC(=O)CC[C@@H]1NC(=O)[C@@H](Cc2c[nH]cn2)NC(=O)[C@H](Cc2c[nH]cn2)NC(=O)[C@@H](CCC(N)=O)NC(=O)[C@H](Cc2ccc(O)cc2)NC(=O)[C@@H](Cc2c[nH]c3ccccc23)NC(=O)[C@H](Cc2c[nH]c3ccccc23)NC(=O)[C@@H](Cc2ccccc2)NC1=O) [compound 5]”, the “Pre-beta HDL generated (normalized level)” value stood at 1.29.

Consider “13 (cyclo([dW]L[dW][Orn][dE]Q[dE][Orn]); SMILES CC(C)C[C@@H]1NC(=O)[C@@H](Cc2c[nH]c3ccccc23)NC(=O)[C@H](CCCN)NC(=O)[C@@H](CCC(=O)O)NC(=O)[C@H](CCC(N)=O)NC(=O)[C@@H](CCC(=O)O)NC(=O)[C@H](CCCN)NC(=O)[C@@H](Cc2c[nH]c3ccccc23)NC1=O) [compound 13]”, for which the “Pre-beta HDL generated (normalized level)” value was 0.46.

In the case of “40 (cyclo([dW]L[dW]S[dE]Q[dH]K); SMILES CC(C)C[C@@H]1NC(=O)[C@@H](Cc2c[nH]c3ccccc23)NC(=O)[C@H](CCCCN)NC(=O)[C@@H](Cc2c[nH]cn2)NC(=O)[C@H](CCC(N)=O)NC(=O)[C@@H](CCC(=O)O)NC(=O)[C@H](CO)NC(=O)[C@@H](Cc2c[nH]c3ccccc23)NC1=O) [compound 40]”, the “Pre-beta HDL generated (normalized level)” value is reported as 0.40.

“47 (cyclo(WIW[dW][dK][dH][dK][dH]); SMILES CC[C@H](C)[C@@H]1NC(=O)[C@H](Cc2c[nH]c3ccccc23)NC(=O)[C@@H](Cc2c[nH]cn2)NC(=O)[C@@H](CCCCN)NC(=O)[C@@H](Cc2c[nH]cn2)NC(=O)[C@@H](CCCCN)NC(=O)[C@@H](Cc2c[nH]c3ccccc23)NC(=O)[C@H](Cc2c[nH]c3ccccc23)NC1=O) [compound 47]”: the “Pre-beta HDL generated (normalized level)” value was 0.79.

In the case of “57 (cyclo([dW]L[dW]K[dS]K); SMILES CC(C)C[C@@H]1NC(=O)[C@@H](Cc2c[nH]c3ccccc23)NC(=O)[C@H](CCCCN)NC(=O)[C@@H](CO)NC(=O)[C@H](CCCCN)NC(=O)[C@@H](Cc2c[nH]c3ccccc23)NC1=O) [compound 57]”, the “Pre-beta HDL generated (normalized level)” value is 0.30.

For the substance “6 (cyclo(L[dW]L[dW]L[dR]K[dE]); SMILES CC(C)C[C@@H]1NC(=O)[C@@H](Cc2c[nH]c3ccccc23)NC(=O)[C@H](CC(C)C)NC(=O)[C@@H](Cc2c[nH]c3ccccc23)NC(=O)[C@H](CC(C)C)NC(=O)[C@@H](CCC(=O)O)NC(=O)[C@H](CCCCN)NC(=O)[C@@H](CCCNC(=N)N)NC1=O) [compound 6]”, the “Pre-beta HDL generated (normalized level)” value amounted to 0.36.

Consider “59 (cyclo([dW]Y[dW]Y[dS]R[dS][dS]); SMILES N=C(N)NCCC[C@@H]1NC(=O)[C@@H](CO)NC(=O)[C@H](Cc2ccc(O)cc2)NC(=O)[C@@H](Cc2c[nH]c3ccccc23)NC(=O)[C@H](Cc2ccc(O)cc2)NC(=O)[C@@H](Cc2c[nH]c3ccccc23)NC(=O)[C@@H](CO)NC(=O)[C@@H](CO)NC1=O) [compound 59]”, for which the “Pre-beta HDL generated (normalized level)” value was 0.24.

In the case of “66 (cyclo([dW][benzyltyrosine][dK]N[dN]K[dK]K); ring closure inferred) [compound 66]”, the “Pre-beta HDL generated (normalized level)” value is listed as 0.10.

As for “9 (cyclo([dW]L[dW]R[dD]N[dD]K); SMILES CC(C)C[C@@H]1NC(=O)[C@@H](Cc2c[nH]c3ccccc23)NC(=O)[C@H](CCCCN)NC(=O)[C@@H](CC(=O)O)NC(=O)[C@H](CC(N)=O)NC(=O)[C@@H](CC(=O)O)NC(=O)[C@H](CCCNC(=N)N)NC(=O)[C@@H](Cc2c[nH]c3ccccc23)NC1=O) [compound 9]”, the “Pre-beta HDL generated (normalized level)” value is listed as 0.47.

Turning to “56 (cyclo([dF]F[dY]Y[dS]R[dK][Orn]); ring closure inferred) [compound 56]”, the “Pre-beta HDL generated (normalized level)” value stood at 0.31.

For “68 (cyclo([dW]W[dF]Y[dK]H[dS]S); SMILES NCCCC[C@H]1NC(=O)[C@H](Cc2ccc(O)cc2)NC(=O)[C@@H](Cc2ccccc2)NC(=O)[C@H](Cc2c[nH]c3ccccc23)NC(=O)[C@@H](Cc2c[nH]c3ccccc23)NC(=O)[C@H](CO)NC(=O)[C@@H](CO)NC(=O)[C@H](Cc2c[nH]cn2)NC1=O) [compound 68]”, the “Pre-beta HDL generated (normalized level)” value is 0.07.

Consider “2 (cyclo([dW]L[dW]K[dD]Q[dE]K); SMILES CC(C)C[C@@H]1NC(=O)[C@@H](Cc2c[nH]c3ccccc23)NC(=O)[C@H](CCCCN)NC(=O)[C@@H](CCC(=O)O)NC(=O)[C@H](CCC(N)=O)NC(=O)[C@@H](CC(=O)O)NC(=O)[C@H](CCCCN)NC(=O)[C@@H](Cc2c[nH]c3ccccc23)NC1=O) [compound 2]”, for which the “Pre-beta HDL generated (normalized level)” value is 0.10.

As for “10 (cyclo([dW]L[dW]K[dD]Q[dD]K); SMILES CC(C)C[C@@H]1NC(=O)[C@@H](Cc2c[nH]c3ccccc23)NC(=O)[C@H](CCCCN)NC(=O)[C@@H](CC(=O)O)NC(=O)[C@H](CCC(N)=O)NC(=O)[C@@H](CC(=O)O)NC(=O)[C@H](CCCCN)NC(=O)[C@@H](Cc2c[nH]c3ccccc23)NC1=O) [compound 10]”, the “Pre-beta HDL generated (normalized level)” value came out at 0.12.

As to “80 (cyclo([dW]L[dW]R[dD]Q[dE]K); SMILES CC(C)C[C@@H]1NC(=O)[C@@H](Cc2c[nH]c3ccccc23)NC(=O)[C@H](CCCCN)NC(=O)[C@@H](CCC(=O)O)NC(=O)[C@H](CCC(N)=O)NC(=O)[C@@H](CC(=O)O)NC(=O)[C@H](CCCNC(=N)N)NC(=O)[C@@H](Cc2c[nH]c3ccccc23)NC1=O) [compound 80]”, the “Pre-beta HDL generated (normalized level)” value is 0.01.

Take “69 (cyclo([dL]W[dL]H[dE]K[dK]H); SMILES CC(C)C[C@H]1NC(=O)[C@H](Cc2c[nH]cn2)NC(=O)[C@@H](CCCCN)NC(=O)[C@H](CCCCN)NC(=O)[C@@H](CCC(=O)O)NC(=O)[C@H](Cc2c[nH]cn2)NC(=O)[C@@H](CC(C)C)NC(=O)[C@H](Cc2c[nH]c3ccccc23)NC1=O) [compound 69]”: the “Pre-beta HDL generated (normalized level)” value was 0.07.

For “20 (cyclo([dW]L[dL]E[dE]K[dK]N); SMILES CC(C)C[C@@H]1NC(=O)[C@@H](Cc2c[nH]c3ccccc23)NC(=O)[C@H](CC(N)=O)NC(=O)[C@@H](CCCCN)NC(=O)[C@H](CCCCN)NC(=O)[C@@H](CCC(=O)O)NC(=O)[C@H](CCC(=O)O)NC(=O)[C@@H](CC(C)C)NC1=O) [compound 20]”, the “Pre-beta HDL generated (normalized level)” value was found to be 0.07.

For the substance “26 (cyclo([dW]L[dL][dW]K[dD]D[dK]); not fully specified (residues 5, 7)) [compound 26]”, the “Pre-beta HDL generated (normalized level)” value is listed as 0.36.

In the case of “49 (cyclo([4Pal][dW]L[dL]H[dS]K[dK]); not fully specified; printed as c[(PA)wLlHsKk]) [compound 49]”, the “Pre-beta HDL generated (normalized level)” value was determined as 0.67.

Consider “67 (cyclo([dW][homoleucine][dW]R[dE]Q[dE]R); ring closure inferred) [compound 67]”, for which the “Pre-beta HDL generated (normalized level)” value is reported as 0.08.

In the case of “22 (cyclo([dW][Aoc(2)][dW]S[dE]Q[dS][Orn]); SMILES CCCCCC[C@@H]1NC(=O)[C@@H](Cc2c[nH]c3ccccc23)NC(=O)[C@H](CCCN)NC(=O)[C@@H](CO)NC(=O)[C@H](CCC(N)=O)NC(=O)[C@@H](CCC(=O)O)NC(=O)[C@H](CO)NC(=O)[C@@H](Cc2c[nH]c3ccccc23)NC1=O) [compound 22]”, the “Pre-beta HDL generated (normalized level)” value was determined as 0.13.

For the substance “51 (cyclo([dF]W[dW]Y[dT]R[dH]S); SMILES C[C@H](O)[C@H]1NC(=O)[C@H](Cc2ccc(O)cc2)NC(=O)[C@@H](Cc2c[nH]c3ccccc23)NC(=O)[C@H](Cc2c[nH]c3ccccc23)NC(=O)[C@@H](Cc2ccccc2)NC(=O)[C@H](CO)NC(=O)[C@@H](Cc2c[nH]cn2)NC(=O)[C@H](CCCNC(=N)N)NC1=O) [compound 51]”, the “Pre-beta HDL generated (normalized level)” value is 1.44.

On to “72 (cyclo([dL]W[dK]H[dS]H[dK]K); SMILES CC(C)C[C@H]1NC(=O)[C@H](CCCCN)NC(=O)[C@@H](CCCCN)NC(=O)[C@H](Cc2c[nH]cn2)NC(=O)[C@@H](CO)NC(=O)[C@H](Cc2c[nH]cn2)NC(=O)[C@@H](CCCCN)NC(=O)[C@H](Cc2c[nH]c3ccccc23)NC1=O) [compound 72]”, for which the “Pre-beta HDL generated (normalized level)” value is recorded as 0.04.
